Drawing on patent US20240207263A1, “SELECTIVE MODULATORS OF ATAXIA TELA[…] (ATM) KINASE AND USES THEREOF” (priority 2021, published 2024), this text covers IC50 for 31 compounds.

The IC50 is the concentration that inhibits the measured activity by half.

The target in this experiment is ATM (Homo sapiens (Human), UniProt Q13315). Briefly: biochemical. The class given is biochemical. The conditions noted are these: read-out: ATM IC50. From the text: Assay a): ATM Biochemical Potency
Chain of ATM (Q13315 whole entry, looked up): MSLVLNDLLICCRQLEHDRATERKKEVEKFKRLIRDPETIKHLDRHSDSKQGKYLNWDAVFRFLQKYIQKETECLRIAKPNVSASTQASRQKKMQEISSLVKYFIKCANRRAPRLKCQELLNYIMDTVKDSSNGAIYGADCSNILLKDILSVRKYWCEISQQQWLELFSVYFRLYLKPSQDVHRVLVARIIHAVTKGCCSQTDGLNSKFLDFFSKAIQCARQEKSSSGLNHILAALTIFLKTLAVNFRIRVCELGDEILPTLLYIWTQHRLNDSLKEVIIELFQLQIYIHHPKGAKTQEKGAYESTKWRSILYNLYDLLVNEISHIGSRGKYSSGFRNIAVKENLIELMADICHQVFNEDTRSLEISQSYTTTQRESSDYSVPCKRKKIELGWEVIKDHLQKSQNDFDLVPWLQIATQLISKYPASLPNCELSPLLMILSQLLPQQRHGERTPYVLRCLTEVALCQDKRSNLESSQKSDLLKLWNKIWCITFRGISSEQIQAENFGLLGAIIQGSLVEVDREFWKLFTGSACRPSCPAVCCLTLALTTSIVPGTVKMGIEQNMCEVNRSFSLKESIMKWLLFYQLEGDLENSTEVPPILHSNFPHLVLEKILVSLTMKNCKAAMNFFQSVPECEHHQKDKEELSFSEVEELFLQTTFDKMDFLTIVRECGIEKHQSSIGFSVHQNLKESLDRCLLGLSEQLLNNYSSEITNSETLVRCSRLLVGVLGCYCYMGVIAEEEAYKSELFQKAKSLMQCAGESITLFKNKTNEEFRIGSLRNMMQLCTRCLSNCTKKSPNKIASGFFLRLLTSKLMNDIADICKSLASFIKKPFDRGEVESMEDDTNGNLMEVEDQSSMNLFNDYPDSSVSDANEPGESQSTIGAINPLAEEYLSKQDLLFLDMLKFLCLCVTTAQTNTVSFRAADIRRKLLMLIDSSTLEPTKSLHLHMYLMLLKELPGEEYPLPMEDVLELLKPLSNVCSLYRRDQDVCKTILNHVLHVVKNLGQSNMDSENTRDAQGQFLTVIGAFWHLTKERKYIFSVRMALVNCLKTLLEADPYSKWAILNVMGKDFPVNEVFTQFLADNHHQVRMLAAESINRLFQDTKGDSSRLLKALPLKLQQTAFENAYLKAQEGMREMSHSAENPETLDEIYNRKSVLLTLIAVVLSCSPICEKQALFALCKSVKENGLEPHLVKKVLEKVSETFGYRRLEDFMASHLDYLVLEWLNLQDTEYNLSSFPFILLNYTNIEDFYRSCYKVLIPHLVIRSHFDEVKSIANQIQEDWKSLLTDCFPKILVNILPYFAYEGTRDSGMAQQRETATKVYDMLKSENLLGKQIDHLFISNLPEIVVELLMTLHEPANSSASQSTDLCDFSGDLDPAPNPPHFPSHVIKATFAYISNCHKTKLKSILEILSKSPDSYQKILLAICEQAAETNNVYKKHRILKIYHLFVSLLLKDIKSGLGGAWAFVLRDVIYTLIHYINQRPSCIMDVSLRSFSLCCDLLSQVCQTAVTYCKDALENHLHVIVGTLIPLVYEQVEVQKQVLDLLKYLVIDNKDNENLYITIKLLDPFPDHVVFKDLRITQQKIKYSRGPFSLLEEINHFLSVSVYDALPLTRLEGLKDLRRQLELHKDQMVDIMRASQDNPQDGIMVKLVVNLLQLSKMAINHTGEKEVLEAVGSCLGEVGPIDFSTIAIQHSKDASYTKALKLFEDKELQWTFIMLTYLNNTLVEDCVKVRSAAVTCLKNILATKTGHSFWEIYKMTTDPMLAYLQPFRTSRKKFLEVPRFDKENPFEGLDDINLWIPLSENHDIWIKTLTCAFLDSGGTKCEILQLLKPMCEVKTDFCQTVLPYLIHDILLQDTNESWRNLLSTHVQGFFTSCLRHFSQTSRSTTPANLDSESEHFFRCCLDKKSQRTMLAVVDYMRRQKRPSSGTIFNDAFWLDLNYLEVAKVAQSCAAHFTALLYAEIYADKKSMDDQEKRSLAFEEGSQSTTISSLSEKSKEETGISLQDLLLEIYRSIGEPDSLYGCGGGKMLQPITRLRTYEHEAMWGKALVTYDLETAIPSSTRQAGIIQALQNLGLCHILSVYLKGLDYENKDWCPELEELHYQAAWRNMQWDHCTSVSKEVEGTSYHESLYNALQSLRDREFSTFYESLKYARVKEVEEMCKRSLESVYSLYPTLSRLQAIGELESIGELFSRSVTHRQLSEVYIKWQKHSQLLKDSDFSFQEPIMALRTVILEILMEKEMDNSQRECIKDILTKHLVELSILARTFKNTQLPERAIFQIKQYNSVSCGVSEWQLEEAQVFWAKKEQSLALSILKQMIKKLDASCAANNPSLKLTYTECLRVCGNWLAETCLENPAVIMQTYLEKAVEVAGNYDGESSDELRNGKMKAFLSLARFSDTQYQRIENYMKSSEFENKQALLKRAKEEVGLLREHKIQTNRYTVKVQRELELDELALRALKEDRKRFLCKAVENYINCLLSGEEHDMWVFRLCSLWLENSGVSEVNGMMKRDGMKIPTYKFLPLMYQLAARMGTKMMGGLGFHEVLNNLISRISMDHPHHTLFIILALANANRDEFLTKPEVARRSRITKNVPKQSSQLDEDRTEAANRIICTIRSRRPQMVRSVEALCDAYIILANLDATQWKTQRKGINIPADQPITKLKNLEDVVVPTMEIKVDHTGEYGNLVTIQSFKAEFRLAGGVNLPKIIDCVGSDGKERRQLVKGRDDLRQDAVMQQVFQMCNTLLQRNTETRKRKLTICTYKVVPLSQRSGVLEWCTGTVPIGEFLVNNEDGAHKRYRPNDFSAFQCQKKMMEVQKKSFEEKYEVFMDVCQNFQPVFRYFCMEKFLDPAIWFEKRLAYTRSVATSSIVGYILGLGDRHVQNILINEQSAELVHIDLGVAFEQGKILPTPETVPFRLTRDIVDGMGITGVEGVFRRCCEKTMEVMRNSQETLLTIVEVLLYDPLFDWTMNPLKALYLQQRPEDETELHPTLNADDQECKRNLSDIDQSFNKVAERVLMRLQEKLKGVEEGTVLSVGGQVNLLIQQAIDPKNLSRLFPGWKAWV
Data was collected by Caliper.
Regarding `CC(OCCN1CC2C(C1)C2(F)F)c1ccc(-c2ccc3nnc4c(c3c2)n(C(C)C)c(=O)n4C)cn1` (stereo in doubt) [Example 70, 8-(6-((1S)-1-(2-(6,6-difluoro-3-azabicyclo[3.1.0]hexan-3-yl)ethoxy)ethyl)pyridin-3-yl)-1-isopropyl-3-methyl-1H-imidazo[4,5-c]cinnolin-2(3H)-one], the IC50 was determined as 295 nM.

As to `CC(OCCN1CC2C(C1)C2(F)F)c1ccc(-c2ccc3nnc4c(c3c2)n(C(C)C)c(=O)n4C)cn1` (stereo in doubt) [Example 71, 8-(6-((1R)-1-(2-(6,6-difluoro-3-azabicyclo[3.1.0]hexan-3-yl)ethoxy)ethyl)pyridin-3-yl)-1-isopropyl-3-methyl-1H-imidazo[4,5-c]cinnolin-2(3H)-one], the IC50 is 9.3 nM.

Turning to `CC(C)n1c(=O)n(C)c2nnc3ccc(-c4ccc(COCCN(C)C)nc4)cc3c21` [Example 2, 8-(6-((2-(dimethylamino)ethoxy)meth-yl)pyridin-3-yl)-1-isopropyl-3-methyl-1H-imidazo[4,5-c]cinnolin-2(3H)-one], the IC50 turned out to be 53 nM.

In the case of `CC(C)n1c(=O)n(C)c2nnc3ccc(-c4ccc(COCCN5CCCCC5)nc4)cc3c21` [Example 3, 1-isopropyl-3-methyl-8-(6-((2-(piperidin-1-yl)ethoxy)methyl)pyridin-3-yl)-1H-imidazo[4,5-c]cinnolin-2(3H)-one], the IC50 is 36 nM.

For `CC(C)n1c(=O)n(C)c2nnc3ccc(-c4ccc(COCCN5CCCC5)nc4)cc3c21` [Example 4, 1-isopropyl-3-methyl-8-(6-((2-(pyrrolidin-1-yl)ethoxy)methyl)pyridin-3-yl)-1H-imidazo[4,5-c]cinnolin-2(3H)-one], the IC50 amounted to 63 nM.

On to `COCCOCc1ccc(-c2ccc3nnc4c(c3c2)n(C(C)C)c(=O)n4C)cn1` [Example 6, 1-isopropyl-8-(6-((2-methoxyethoxy)methyl)py-ridin-3-yl)-3-methyl-1H-imidazo[4,5-c]cinnolin-2(3H)-one], for which the IC50 came out at 469 nM.

As for `CC(C)n1c(=O)n(C)c2nnc3ccc(-c4ccc(COC5CCN(C)CC5)nc4)cc3c21` [Example 7, 1-isopropyl-3-methyl-8-(6-(((1-methylpiperidin-4-yl)oxy)methyl)pyridin-3-yl)-1H-imidazo[4,5-c]cinnolin-2(3H)-one], the IC50 stood at 227 nM.

Consider `CC(C)n1c(=O)n(C)c2nnc3ccc(-c4ccc(COCCCN(C)C)nc4)cc3c21` [Example 8, 8-(6-((3-(dimethylamino)propoxy)methyl)pyridin-3-yl)-1-isopropyl-3-methyl-1H-imidazo[4,5-c]cinnolin-2(3H)-one], for which the 50% inhibitory concentration (IC50) came out at 98 nM.

Take `CC(C)n1c(=O)n(C)c2nnc3ccc(-c4ccc(COCC5CCN(C)CC5)nc4)cc3c21` [Example 9, 1-isopropyl-3-methyl-8-(6-(((1-methylpiperidin-4-yl)methoxy)methyl)pyridin-3-yl)-1H-imidazo[4,5-c]cinnolin-2(3H)-one]: the IC50 was 180 nM.

As for `CC(C)n1c(=O)n(C)c2nnc3ccc(-c4ccc(COCC5CCCN5C)nc4)cc3c21` (stereo not shown) [Example 10, 1-isopropyl-3-methyl-8-(6-(((1-methylpyrrolidin-2-yl)methoxy)methyl)pyridin-3-yl)-1H-imidazo[4,5-c]cinnolin-2(3H)-one], the IC50 was 105 nM.

For the compound `CC(C)n1c(=O)n(C)c2nnc3ccc(-c4ccc(COC5CCN(C)C5)nc4)cc3c21` (stereo not shown) [Example 11, 1-isopropyl-3-methyl-8-(6-(((1-methylpyrrolidin-3-yl)oxy)methyl)pyridin-3-yl)-1H-imidazo[4,5-c]cinnolin-2(3H)-one], the half-maximal inhibitory concentration (IC50) came to 123 nM.

As to `CC(C)n1c(=O)n(C)c2nnc3ccc(-c4ccc(COCCCN5CC6CC6C5)nc4)cc3c21` (stereo not shown) [Example 12, 8-(6-((3-(3-azabicyclo[3.1.0]hexan-3-yl)propoxy)methyl)pyridin-3-yl)-1-isopropyl-3-methyl-1H-imidazo[4,5-c]cinnolin-2(3H)-one], the IC50 was found to be 47 nM.

Take `CC(C)n1c(=O)n(C)c2nnc3ccc(-c4ccc(COC5CCCN(C)C5)nc4)cc3c21` (stereo not shown) [Example 13, 1-isopropyl-3-methyl-8-(6-(((1-methylpiperidin-3-yl)oxy)methyl)pyridin-3-yl)-1H-imidazo[4,5-c]cinnolin-2(3H)-one]: the IC50 amounted to 144 nM.

As for `CC(C)n1c(=O)n(C)c2nnc3ccc(-c4ccc(COC5CC(N(C)C)C5)nc4)cc3c21` (stereo not shown) [Example 14, 8-(6-((3-(dimethylamino)cyclobuto-xy)methyl)pyridin-3-yl)-1-isopropyl-3-methyl-1H-imidazo[4,5-c]cinnolin-2(3H)-one], the IC50 was 68 nM.

For the compound `CC(C)n1c(=O)n(C)c2nnc3ccc(-c4ccc(COC5CN(C)C5)nc4)cc3c21` [Example 15, 1-isopropyl-3-methyl-8-(6-(((1-methylazetidin-3-yl)oxy)methyl)pyridin-3-yl)-1H-imidazo[4,5-c]cinnolin-2(3H)-one], the IC50 came out at 134 nM.

In the case of `CC(COCc1ccc(-c2ccc3nnc4c(c3c2)n(C(C)C)c(=O)n4C)cn1)N1CC2CC2C1` (stereo not shown) [Example 16, 8-(6-((2-(3-azabicyclo[3.1.0]hexan-3-yl)propoxy)methyl)pyridin-3-yl)-1-isopropyl-3-methyl-1H-imidazo[4,5-c]cinnolin-2(3H)-one], the IC50 came to 201 nM.

As to `CC(C)n1c(=O)n(C)c2nnc3ccc(-c4ccc(COCC(C)(C)N5CC6CC6C5)nc4)cc3c21` (stereo not shown) [Example 17, 8-(6-((2-(3-azabicyclo[3.1.0]hexan-3-yl)-2-methylpropoxy)methyl)pyridin-3-yl)-1-isopropyl-3-methyl-1H-imidazo[4,5-c]cinnolin-2(3H)-one], the IC50 is 464 nM.

As to `CC(C)n1c(=O)n(C)c2nnc3ccc(-c4ccc(COCC5(N6CC7CC7C6)CC5)nc4)cc3c21` (stereo not shown) [Example 18, 8-(6-(((1-(3-azabicyclo[3.1.0]hexan-3-yl)cyclopropyl)methoxy)methyl)pyridin-3-yl)-1-isopropyl-3-methyl-1H-imidazo[4,5-c]cinnolin-2(3H)-one], the IC50 was 377 nM.

As to `CC(C)n1c(=O)n(C)c2nnc3ccc(-c4ccc(COCC5CCCN(C)C5)nc4)cc3c21` (stereo not shown) [Example 19, 1-isopropyl-3-methyl-8-(6-(((1-methylpiperidin-3-yl)methoxy)methyl)pyridin-3-yl)-1H-imidazo[4,5-c]cinnolin-2(3H)-one], the IC50 came to 99 nM.

Take `CC(C)n1c(=O)n(C)c2nnc3ccc(-c4ccc(COCC5CCN(C)C5)nc4)cc3c21` (stereo not shown) [Example 20, 1-isopropyl-3-methyl-8-(6-(((1-methylpyrrolidin-3-yl)methoxy)methyl)pyridin-3-yl)-1H-imidazo[4,5-c]cinnolin-2(3H)-one]: the IC50 came out at 51 nM.

For the compound `CC(CN1CC2CC2C1)OCc1ccc(-c2ccc3nnc4c(c3c2)n(C(C)C)c(=O)n4C)cn1` (stereo not shown) [Example 21, 8-(6-(((1-(3-azabicyclo[3.1.0]hexan-3-yl)propan-2-yl)oxy)methyl)pyridin-3-yl)-1-isopropyl-3-methyl-1H-imidazo[4,5-c]cinnolin-2(3H)-one], the IC50 turned out to be 139 nM.

In the case of `CC(C)n1c(=O)n(C)c2nnc3ccc(-c4ccc(COC5(CN6CC7CC7C6)CC5)nc4)cc3c21` (stereo not shown) [Example 23, 8-(6-((1-(3-azabicyclo[3.1.0]hexan-3-ylmethyl)cyclopropoxy)methyl)pyridin-3-yl)-1-isopropyl-3-methyl-1H-imidazo[4,5-c]cinnolin-2(3H)-one], the IC50 came to 420 nM.

For `CC(C)n1c(=O)n(C)c2nnc3ccc(-c4ccc(COCCN5CCC(C#N)CC5)nc4)cc3c21` [Example 24, 1-(2-((5-(1-isopropyl-3-methyl-2-oxo-2,3-dihydro-1H-imidazo[4,5-c]cinnolin-8-yl)pyridin-2-yl)methoxy)ethyl)pyiperidine-4-carbonitrile], the IC50 came out at 26 nM.

`CC(C)n1c(=O)n(C)c2nnc3ccc(-c4ccc(COCCN5CCC(C#N)C5)nc4)cc3c21` (stereo not shown) [Example 25]: the half-maximal inhibitory concentration (IC50) came to 71 nM.

Regarding `CC(C)n1c(=O)n(C)c2nnc3ccc(-c4ccc(COCCN5CCC6(CC6)C5)nc4)cc3c21` [Example 26, 8-(6-((2-(5-azaspiro[2.4]heptan-5-yl)ethoxy)methyl)pyridin-3-yl)-1-isopropyl-3-methyl-1H-imidazo[4,5-c]cinnolin-2(3H)-one], the IC50 was 14 nM.

With `COC1CCN(CCOCc2ccc(-c3ccc4nnc5c(c4c3)n(C(C)C)c(=O)n5C)cn2)CC1` [Example 27, 1-isopropyl-8-(6-((2-(4-methoxypiperidin-1-yl)ethoxy)methyl)pyridin-3-yl)-3-methyl-1H-imidazo[4,5-c]cinnolin-2(3H)-one], the IC50 was found to be 92 nM.

As to `CC(C)n1c(=O)n(C)c2nnc3ccc(-c4ccc(COCCN5CC[C@@H](F)C5)nc4)cc3c21` [Example 28, (R)-8-(6-((2-(3-fluoropyrrolidin-1-yl)ethoxy)methyl)pyridin-3-yl)-1-isopropyl-3-methyl-1H-imidazo[4,5-c]cinnolin-2(3H)-one], the IC50 worked out at 81 nM.

Consider `CC(C)n1c(=O)n(C)c2nnc3ccc(-c4ccc(COCCN5CCC[C@@H]5C)nc4)cc3c21` [Example 29, (S)-1-isopropyl-3-methyl-8-(6-((2-(2-methylpyrrolidin-1-yl)ethoxy)methyl)pyridin-3-yl)-1H-imidazo[4,5-c]cinnolin-2(3H)-one], for which the IC50 worked out at 68 nM.

With `CC(C)n1c(=O)n(C)c2nnc3ccc(-c4ccc(COCCN5CCC(F)(F)CC5)nc4)cc3c21` [Example 30, 8-(6-((2-(4,4-difluoropiperidin-1-yl)ethoxy)methyl)pyridin-3-yl)-1-isopropyl-3-methyl-1H-imidazo[4,5-c]cinnolin-2(3H)-one], the IC50 is 62 nM.

On to `CC(C)n1c(=O)n(C)c2nnc3ccc(-c4ccc(COCCN5CCN(C)CC5)nc4)cc3c21` [Example 32, 1-isopropyl-3-methyl-8-(6-((2-(4-methylpiperazin-1-yl)ethoxy)methyl)pyridin-3-yl)-1H-imidazo[4,5-c]cinnolin-2(3H)-one], for which the IC50 is 304 nM.

For the compound `CC(C)n1c(=O)n(C)c2nnc3ccc(-c4ccc(COCCN5CCOCC5)nc4)cc3c21` [Example 33, 1-isopropyl-3-methyl-8-(6-((2-morpholinoethoxy)methyl)pyridin-3-yl)-1H-imidazo[4,5-c]cinnolin-2(3H)-one], the IC50 worked out at 58 nM.
